Values after ≈ are worked out from the molar mass of the structure shown. “Also recorded” adds a separate entry of the source. Like-named read-outs stand apart in the source and are kept apart here.
Tests used:
Assay type in all cases: physicochemical
[1] = Physical stability of amorphous mirdametinib on storage (PXRD, PLM)
Protocol: Solutions of mirdametinib (100 mg/mL) were prepared in methanol and THF, and each solution was divided into three equal parts to be used for 1) open at RT stability evaluation, 2) closed at RT stability evaluation, and 3) closed at −20° C. stability evaluation.
PXRD analyses of all six samples (three from both methanol and THF) following rapid evaporation indicated an amorphous state. Other analyses (e.g. PLM, TGA-IR, DSC) were performed on one sample from each solvent. Following initial analyses, one sample from each solvent was stored at RT in an open vial, at RT in a capped vial, and at −20° C. in a capped vial.

[2] = Solid-state stability of crystal forms at ambient conditions
Excerpt: The following sections describe and summarize the physical properties of each of the crystal forms observed for mirdametinib.

[3] = Drying of certain forms via vacuum oven at 45° C.; details: overnight in vacuum oven at 45° C.; PXRD at about 70% ambient lab humidity
Protocol: Drying studies for certain forms were conducted overnight in a vacuum oven at 45° C. After drying, samples were equilibrated to RT for 10 min. and analyzed by PXRD at about 70% ambient lab humidity.

[4] = Desolvation/dehydration by heating in TGA pan to 100° C.; details: 15° C./min from 25 to 100° C., 5 min. hold at 100° C., air-cooled to RT
Protocol: Desolvation/dehydration studies of certain forms were conducted in a TGA pan with loose lid at a heating rate of 15° C./min from 25 to 100° C. with a 5 min. hold at 100° C. Samples were air-cooled to RT on the TGA and analyzed by PXRD if crystalline. […] PXRD indicated Form I.

[5] = Approximate kinetic solubility (visual, solvent aliquot addition); details: thermodynamic from solid; for solubility: read-out: Solubility (mg/mL)at RT (23° C.); for solubility at 1 h: heated to 40° C. for 1 hour, read-out: Solubility (mg/mL) at 40° C.
Protocol: Solubility of mirdametinib prepared by Example 3 was assessed in 30 solvents. The solubility was visually estimated at room temperature (RT; ˜23° C.) by dosing small aliquots of solvent into a fixed amount of solid (˜10 mg) until the dissolution point or a maximum volume (1.8 mL) was reached. Samples that contained undissolved solids at RT were heated to 40° C. for 1 hour and the dissolution was assessed visually. The solubility data are shown below in Table 1.

**Q.** For `O=C(NOC[C@H](O)CO)c1ccc(F)c(F)c1Nc1ccc(I)cc1F` [A- 2], which “Results (solid form after 1 day at ambient)” value [1] is on record?
**A.** Form IV

**Q.** For `O=C(NOC[C@H](O)CO)c1ccc(F)c(F)c1Nc1ccc(I)cc1F` [Amorphous mirdametinib, N—((R)-2,3-dihydroxypropoxy)-3,4-difluoro-2-(2-fluoro-4-iodo-phenylamino)-benzamide], which “Physically stable for” value ([1]; open and closed vials at RT) is on record?
**A.** at least 24 hours

**Q.** For `O=C(NOC[C@H](O)CO)c1ccc(F)c(F)c1Nc1ccc(I)cc1F` [Form A-1], which “Results (solid form after 1 day at ambient)” value [1] is on record?
**A.** Amorphous

**Q.** For `O=C(NOC[C@H](O)CO)c1ccc(F)c(F)c1Nc1ccc(I)cc1F` [Form A-1a], which “Solid state by PXRD and PLM after one day” value (“Solid state by PXRD and PLM” for short) ([1]; open vial at RT) is on record?
**A.** no crystallization

**Q.** For `O=C(NOC[C@H](O)CO)c1ccc(F)c(F)c1Nc1ccc(I)cc1F` [Form A-1b], which “Solid state by PXRD and PLM” value ([1]; capped vial at RT) is on record?
**A.** no crystallization

**Q.** With `O=C(NOC[C@H](O)CO)c1ccc(F)c(F)c1Nc1ccc(I)cc1F` [Form A-2a] as the compound, how does the “Solid state by PXRD and PLM” value ([1]; open vial at RT) read?
**A.** crystallization to Form IV

**Q.** With `O=C(NOC[C@H](O)CO)c1ccc(F)c(F)c1Nc1ccc(I)cc1F` [Form IX, N—((R)-2,3-dihydroxypropoxy)-3,4-difluoro-2-(2-fluoro-4-iodo-phenylamino)-benzamide] as the compound, how does the “Conversion at ambient conditions (in words)” value ([2]; ambient conditions) read?
**A.** significant conversion toward Form IV after 20 hours; also recorded: slowly convert to Form IV

**Q.** Which “Form after vacuum oven drying (PXRD)” value [3] does the source give for `O=C(NOC[C@H](O)CO)c1ccc(F)c(F)c1Nc1ccc(I)cc1F` [Form VI, N—((R)-2,3-dihydroxypropoxy)-3,4-difluoro-2-(2-fluoro-4-iodo-phenylamino)-benzamide] here?
**A.** Partially converted to Form A

**Q.** And the “Stable in solid-state at ambient conditions for” value ([2]; solid-state, ambient conditions)?
**A.** ≥ 2 weeks

**Q.** What about the “Result of desolvation/dehydration by heating” value [4] of the same compound?
**A.** melted and solidified in molten, amorphous state, possible decomposition

**Q.** For `O=C(NOC[C@H](O)CO)c1ccc(F)c(F)c1Nc1ccc(I)cc1F` [Form VIII, N—((R)-2,3-dihydroxypropoxy)-3,4-difluoro-2-(2-fluoro-4-iodo-phenylamino)-benzamide], which “Stable at ambient conditions for” value ([2]; ambient conditions) is on record?
**A.** ≥ 2 days

**Q.** With `O=C(NOC[C@H](O)CO)c1ccc(F)c(F)c1Nc1ccc(I)cc1F` [Form XIII, N—((R)-2,3-dihydroxypropoxy)-3,4-difluoro-2-(2-fluoro-4-iodo-phenylamino)-benzamide] as the compound, how does the “Form after vacuum oven drying (PXRD)” value [3] read?
**A.** Form XIII/Form IV mixture converted to Form IV

**Q.** Which “Conversion at ambient conditions (in words)” value ([2]; ambient conditions) does the source give for `O=C(NOC[C@H](O)CO)c1ccc(F)c(F)c1Nc1ccc(I)cc1F` [Form XIV, N—((R)-2,3-dihydroxypropoxy)-3,4-difluoro-2-(2-fluoro-4-iodo-phenylamino)-benzamide] here?
**A.** convert to Form IV within four days

**Q.** With `O=C(NOC[C@H](O)CO)c1ccc(F)c(F)c1Nc1ccc(I)cc1F` [Form XIX, N—((R)-2,3-dihydroxypropoxy)-3,4-difluoro-2-(2-fluoro-4-iodo-phenylamino)-benzamide] as the compound, how does the “Form after vacuum oven drying (PXRD)” value [3] read?
**A.** Remained unchanged

**Q.** What about the “Stable in a capped vial for” value ([2]; capped vial) of the same compound?
**A.** ≥ 2 weeks

**Q.** What about the “Result of desolvation/dehydration by heating” value [4] of the same compound?
**A.** solid particles (not melted). PXRD indicated Form I

**Q.** For `O=C(NOC[C@H](O)CO)c1ccc(F)c(F)c1Nc1ccc(I)cc1F` [Form XX, N—((R)-2,3-dihydroxypropoxy)-3,4-difluoro-2-(2-fluoro-4-iodo-phenylamino)-benzamide], which “Time to convert to Form IV at ambient conditions” value ([2]; ambient conditions) is on record?
**A.** ≤ 10 days

**Q.** Which “Conversion noted under Nature of Solvate (Table 2)” value [2] does the source give for `O=C(NOC[C@H](O)CO)c1ccc(F)c(F)c1Nc1ccc(I)cc1F` [Form XXI, N—((R)-2,3-dihydroxypropoxy)-3,4-difluoro-2-(2-fluoro-4-iodo-phenylamino)-benzamide] here?
**A.** (converts to Form IV)

**Q.** Which solubility ([5]; 1-propanol, 23 °C, organic solvent or mixture) does the source give for `O=C(NOC[C@H](O)CO)c1ccc(F)c(F)c1Nc1ccc(I)cc1F` [mirdametinib, N—((R)-2,3-dihydroxypropoxy)-3,4-difluoro-2-(2-fluoro-4-iodo-phenylamino)-benzamide] here?
**A.** 101 to 202 mg/mL (≈ 209 to 419 mM)

**Q.** And the solubility ([5]; 2-methyl-2-butanol, 23 °C, organic solvent or mixture)?
**A.** 97 to 194 mg/mL (≈ 201 to 402 mM)

**Q.** And the solubility ([5]; 2-propanol (IPA), 23 °C, organic solvent or mixture)?
**A.** 98 to 196 mg/mL (≈ 203 to 406 mM)

**Q.** What about the solubility ([5]; 23 °C, organic solvent or mixture, 2-Propanol: water (9:1 v/v)) of the same compound?
**A.** > 400 mg/mL

**Q.** And the solubility ([5]; DMF (dimethylformamide), 23 °C, organic solvent or mixture)?
**A.** > 408 mg/mL

**Q.** And the solubility ([5]; Dioxane, 23 °C, organic solvent or mixture)?
**A.** > 408 mg/mL

**Q.** And the solubility ([5]; Ethanol/Water (9:1 v/v), 23 °C, organic solvent or mixture)?
**A.** > 424 mg/mL

**Q.** What about the solubility ([5]; MIBK (4-methyl-2-pentanone), 23 °C, organic solvent or mixture) of the same compound?
**A.** 48 to 95 mg/mL (≈ 99.5 to 197 mM)

**Q.** And the solubility ([5]; MTBE (methyl-t-butylether), 23 °C, organic solvent or mixture)?
**A.** < 6 mg/mL

**Q.** What about the solubility ([5]; MeCN/Water (7:3 v/v), 23 °C, organic solvent or mixture) of the same compound?
**A.** > 408 mg/mL

**Q.** What about the solubility ([5]; MeCN/water (8:2 v/v), 23 °C, organic solvent or mixture) of the same compound?
**A.** > 412 mg/mL

**Q.** What about the solubility ([5]; acetic acid (HOAc), 23 °C, organic solvent or mixture) of the same compound?
**A.** > 388 mg/mL

**Q.** What about the solubility ([5]; acetone, 23 °C, organic solvent or mixture) of the same compound?
**A.** > 400 mg/mL

**Q.** What about the solubility ([5]; acetonitrile (MeCN), 23 °C, organic solvent or mixture) of the same compound?
**A.** 19 to 49 mg/mL (≈ 39.4 to 102 mM)

**Q.** What about the solubility ([5]; chloroform, 23 °C, organic solvent or mixture) of the same compound?
**A.** < 6 mg/mL

**Q.** What about the solubility ([5]; cyclohexane, 23 °C, organic solvent or mixture) of the same compound?
**A.** < 6 mg/mL

**Q.** What about the solubility ([5]; dichloromethane (DCM), 23 °C, organic solvent or mixture) of the same compound?
**A.** < 6 mg/mL

**Q.** And the solubility ([5]; dimethyl sulfoxide (DMSO), 23 °C, organic solvent or mixture)?
**A.** > 388 mg/mL

**Q.** What about the solubility ([5]; dimethylcarbonate (DMC), 23 °C, organic solvent or mixture) of the same compound?
**A.** 10 to 19 mg/mL (≈ 20.7 to 39.4 mM)

**Q.** What about the solubility ([5]; ethanol, 23 °C, organic solvent or mixture) of the same compound?
**A.** 208 to 416 mg/mL (≈ 431 to 863 mM)

**Q.** What about the solubility ([5]; ethanol/toluene (9:1), 23 °C, organic solvent or mixture) of the same compound?
**A.** 210 to 420 mg/mL (≈ 436 to 871 mM)

**Q.** And the solubility ([5]; ethyl acetate (EtOAc), 23 °C, organic solvent or mixture)?
**A.** 48 to 95 mg/mL (≈ 99.5 to 197 mM)

**Q.** And the solubility ([5]; isopropyl ether (IPE), 23 °C, organic solvent or mixture)?
**A.** < 6 mg/mL

**Q.** And the solubility ([5]; methanol (MeOH), 23 °C, organic solvent or mixture)?
**A.** > 380 mg/mL

**Q.** And the solubility ([5]; nitromethane, 23 °C, organic solvent or mixture)?
**A.** 10 to 20 mg/mL (≈ 20.7 to 41.5 mM)

**Q.** And the solubility at 1 h ([5]; organic solvent or mixture, Chloroform)?
**A.** < 6 mg/mL

**Q.** What about the solubility at 1 h ([5]; organic solvent or mixture, Cyclohexane) of the same compound?
**A.** < 6 mg/mL

**Q.** What about the solubility at 1 h ([5]; organic solvent or mixture, Dichloromethane (DCM)) of the same compound?
**A.** > 6 mg/mL

**Q.** What about the solubility at 1 h ([5]; organic solvent or mixture, Isopropyl ether (IPE)) of the same compound?
**A.** < 6 mg/mL

**Q.** What about the solubility at 1 h ([5]; organic solvent or mixture, MTBE (methyl-t-butylether)) of the same compound?
**A.** > 6 mg/mL

**Q.** What about the solubility ([5]; organic solvent or mixture, Tert-butanol (t-BuOH), solubility determined at 30° C. (footnote)) of the same compound?
**A.** 6 to 10 mg/mL (≈ 12.4 to 20.7 mM)

**Q.** And the solubility at 1 h ([5]; organic solvent or mixture, Toluene)?
**A.** < 6 mg/mL

**Q.** And the solubility ([5]; tetrahydrofuran (THF), 23 °C, organic solvent or mixture)?
**A.** > 396 mg/mL

**Q.** And the solubility at 1 h ([5]; Water)?
**A.** < 6 mg/mL

**Q.** And the solubility ([5]; toluene, 23 °C, organic solvent or mixture)?
**A.** < 6 mg/mL

**Q.** And the solubility ([5]; trifluoroethanol (TFE), 23 °C, organic solvent or mixture)?
**A.** 7 to 12 mg/mL (≈ 14.5 to 24.9 mM)

**Q.** And the solubility ([5]; water, 23 °C, water)?
**A.** < 6 mg/mL

— patent publication US12275688B2, “Crystalline solids of MEK inhibitor N-((R)-2,3-dihydroxypropoxy)-3,4-difluoro-2-(2-fluoro-4-iodo-phenylamino)-benzamide and uses thereof” (SpringWorks Therapeutics, Inc., priority 2021, dated 2025)
